The source of these data is ChEMBL document CHEMBL5465560, “Selectivity Literature for EUbOPEN Chemogenomic Library” (2024).

Molecules are shown by their SMILES.

For series [1], the target named is Serine/threonine-protein kinase PAK 2 (Homo sapiens) (UniProt Q13177). The series can be described thus: Selectivity interaction (Millipore kinase profiler) EUB0000124b PAK2. The note with it: at 10 µM.
Series [2] deals with Serine/threonine-protein kinase MRCK beta (Homo sapiens) (UniProt Q9Y5S2). The series can be described thus: Selectivity interaction (KinomeScan (DiscoverX)) EUB0001049a CDC42BPB. The note with it: at 1 µM.
Series [3] has as its target Fibroblast growth factor receptor 4 (Homo sapiens, UniProt P22455). The series can be described thus: Selectivity interaction (KinomeScan (DiscoverX)) EUB0001049a FGFR4. The note with it: at 1 µM.
The target of series [4] is T1, Peripheral plasma membrane protein CASK (Homo sapiens) (UniProt O14936).
T1 sequence (whole entry): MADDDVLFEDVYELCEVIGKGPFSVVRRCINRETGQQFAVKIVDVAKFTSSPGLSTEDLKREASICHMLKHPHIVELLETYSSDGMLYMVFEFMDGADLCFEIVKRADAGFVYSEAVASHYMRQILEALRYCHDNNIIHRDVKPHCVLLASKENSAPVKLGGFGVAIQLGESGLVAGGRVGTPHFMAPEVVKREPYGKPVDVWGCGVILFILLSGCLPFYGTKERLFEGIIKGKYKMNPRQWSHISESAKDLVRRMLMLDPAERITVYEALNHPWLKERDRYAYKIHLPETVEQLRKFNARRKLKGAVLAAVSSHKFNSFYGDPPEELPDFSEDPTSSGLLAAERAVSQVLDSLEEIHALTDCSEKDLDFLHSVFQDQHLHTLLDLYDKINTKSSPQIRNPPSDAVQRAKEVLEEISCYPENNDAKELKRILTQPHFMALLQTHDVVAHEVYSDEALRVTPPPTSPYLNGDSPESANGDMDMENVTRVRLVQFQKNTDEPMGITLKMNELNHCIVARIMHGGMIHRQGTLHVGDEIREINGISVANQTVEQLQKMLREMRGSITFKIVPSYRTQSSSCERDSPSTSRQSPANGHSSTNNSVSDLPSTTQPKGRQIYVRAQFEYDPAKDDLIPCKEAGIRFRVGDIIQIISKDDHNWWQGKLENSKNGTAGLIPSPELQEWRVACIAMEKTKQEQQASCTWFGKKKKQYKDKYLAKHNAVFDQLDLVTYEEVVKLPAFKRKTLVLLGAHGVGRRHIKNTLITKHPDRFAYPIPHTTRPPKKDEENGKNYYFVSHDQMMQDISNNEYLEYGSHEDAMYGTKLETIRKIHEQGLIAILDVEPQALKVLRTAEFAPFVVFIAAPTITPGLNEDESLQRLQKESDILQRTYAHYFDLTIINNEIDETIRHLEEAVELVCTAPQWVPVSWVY
The experiment in a line: Selectivity interaction (KinomeScan (DiscoverX)) EUB0000655a CASK. The note with it: at 10 µM.

Series [5] addresses MAO-B (MAOB) (Homo sapiens, UniProt P27338). The experiment in a line: Selectivity interaction (Panel of kinases, GPCRs, ion channels and transporters (enzymatic assay)) EUB0000223bCl MAOB.
Series [6] deals with T2, Mitogen-activated protein kinase 12 (Homo sapiens) (UniProt P53778).
T2 sequence (whole entry): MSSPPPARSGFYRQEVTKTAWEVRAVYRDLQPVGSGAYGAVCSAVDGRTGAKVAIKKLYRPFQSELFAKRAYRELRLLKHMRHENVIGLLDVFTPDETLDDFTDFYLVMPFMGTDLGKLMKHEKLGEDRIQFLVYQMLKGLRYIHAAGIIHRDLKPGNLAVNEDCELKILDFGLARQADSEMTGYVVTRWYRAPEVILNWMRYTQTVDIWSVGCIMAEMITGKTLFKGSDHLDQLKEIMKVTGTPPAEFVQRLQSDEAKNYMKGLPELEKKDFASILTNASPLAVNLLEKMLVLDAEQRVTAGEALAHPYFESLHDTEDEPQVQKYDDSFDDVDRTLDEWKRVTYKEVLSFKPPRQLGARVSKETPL
The series can be described thus: Selectivity interaction (KinomeScan (DiscoverX)) EUB0000695a MAPK12. The note with it: at 100 nM.

The nature of series [7]: Selectivity interaction (KinomeScan (DiscoverX)) EUB0000045b CDPK1. The conditions noted are these: at 10 µM.
Series [8] has as its target Citron Rho-interacting kinase (Homo sapiens) (UniProt O14578). The experiment in a line: Selectivity interaction (KinomeScan (DiscoverX)) EUB0000607a CIT. The conditions noted are these: at 10 µM.
Series [9] addresses Tyrosine-protein kinase CSK (Homo sapiens) (UniProt P41240). The series can be described thus: Selectivity interaction (ActivX KiNativ screen (kinase selectivity in THP-1 cell lysates)) EUB0000639a CSK. The note with it: lysate, at 0.01 µM. Type of series: subcellular.
The target of series [10] is Serine/threonine-protein kinase PRP4 homolog (Homo sapiens) (UniProt Q13523). The experiment in a line: Selectivity interaction (ActivX KiNativ screen (kinase selectivity in THP-1 cell lysates)) EUB0000639a PRPF4. Format: subcellular. The note with it: lysate.
Sequence of Serine/threonine-protein kinase PRP4 homolog (Homo sapiens) (Q13523 whole entry): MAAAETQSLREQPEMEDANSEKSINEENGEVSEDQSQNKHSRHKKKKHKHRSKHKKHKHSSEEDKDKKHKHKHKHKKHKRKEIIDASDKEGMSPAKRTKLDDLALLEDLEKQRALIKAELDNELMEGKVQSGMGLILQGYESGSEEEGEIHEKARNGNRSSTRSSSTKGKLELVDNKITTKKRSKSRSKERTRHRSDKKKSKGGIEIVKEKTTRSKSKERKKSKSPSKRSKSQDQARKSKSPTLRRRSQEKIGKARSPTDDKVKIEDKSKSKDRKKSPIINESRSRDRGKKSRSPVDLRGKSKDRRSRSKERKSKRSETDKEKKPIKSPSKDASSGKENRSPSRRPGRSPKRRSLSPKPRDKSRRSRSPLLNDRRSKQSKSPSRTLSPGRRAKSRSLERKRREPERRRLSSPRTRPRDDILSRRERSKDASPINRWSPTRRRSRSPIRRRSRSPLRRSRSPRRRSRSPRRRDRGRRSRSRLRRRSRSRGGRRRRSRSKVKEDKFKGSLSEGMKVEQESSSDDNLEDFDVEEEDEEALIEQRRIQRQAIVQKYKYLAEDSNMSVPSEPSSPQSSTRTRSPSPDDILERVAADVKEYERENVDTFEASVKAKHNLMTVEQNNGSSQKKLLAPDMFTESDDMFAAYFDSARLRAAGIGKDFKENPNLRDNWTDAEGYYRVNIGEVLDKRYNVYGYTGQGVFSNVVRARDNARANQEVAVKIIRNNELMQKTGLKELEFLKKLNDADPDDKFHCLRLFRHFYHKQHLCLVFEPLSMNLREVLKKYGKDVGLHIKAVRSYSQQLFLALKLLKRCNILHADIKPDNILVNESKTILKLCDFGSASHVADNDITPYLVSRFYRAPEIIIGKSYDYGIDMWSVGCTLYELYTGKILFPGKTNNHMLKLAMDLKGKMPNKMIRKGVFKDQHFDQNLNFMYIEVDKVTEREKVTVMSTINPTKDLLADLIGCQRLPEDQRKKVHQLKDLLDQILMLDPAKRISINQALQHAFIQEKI
The target in series [11] is Cyclin-dependent kinase 17 (Homo sapiens) (UniProt Q00537). The series can be described thus: Selectivity interaction (KinomeScan (DiscoverX)) EUB0000229b CDK17. The conditions noted are these: at 10 µM.
Series [12] concerns the target Leukocyte tyrosine kinase receptor (Homo sapiens, UniProt P29376). The series can be described thus: Selectivity interaction (KinomeScan (DiscoverX)) EUB0000229b LTK. The conditions noted are these: at 10 µM.
The target of series [13] is Phosphatidylinositol 4,5-bisphosphate 3-kinase catalytic subunit gamma isoform (Homo sapiens) (UniProt P48736). The experiment in a line: Selectivity interaction (KinomeScan (DiscoverX)) EUB0000877a PIK3CG. The conditions noted are these: at 10 µM.
Series [14] deals with Ephrin type-A receptor 5 (Homo sapiens) (UniProt P54756). The experiment in a line: Selectivity interaction (Kinase panel (DSF assay)) EUB0001559a EPHA5. Background: DSF heats the sample and reads unfolding from a dye or from intrinsic fluorescence.
The target of series [15] is Ephrin type-A receptor 2 (Homo sapiens) (UniProt P29317). The series can be described thus: Selectivity interaction (KinomeScan (DiscoverX)) EUB0000595a EPHA2. The conditions noted are these: at 10 µM.
Series [16] addresses Mitogen-activated protein kinase kinase kinase 11 (Homo sapiens) (UniProt Q16584). The series can be described thus: Selectivity interaction (KinomeScan (DiscoverX)) EUB0001619a MAP3K11. The note with it: at 1 µM.
In series [17] the target is Calcium/calmodulin-dependent protein kinase type II subunit alpha (Homo sapiens, UniProt Q9UQM7). The experiment in a line: Selectivity interaction (KinomeScan (DiscoverX)) EUB0000618a CAMK2A. The note with it: at 10 µM.
Series [18] concerns the target Fibroblast growth factor receptor 1 (Homo sapiens, UniProt P11362). The series can be described thus: Selectivity interaction (KinomeScan (DiscoverX)) EUB0000618a FGFR1. The note with it: at 10 µM.

Sequence of Mitogen-activated protein kinase kinase kinase 11 (Homo sapiens) (Q16584 whole entry, looked up): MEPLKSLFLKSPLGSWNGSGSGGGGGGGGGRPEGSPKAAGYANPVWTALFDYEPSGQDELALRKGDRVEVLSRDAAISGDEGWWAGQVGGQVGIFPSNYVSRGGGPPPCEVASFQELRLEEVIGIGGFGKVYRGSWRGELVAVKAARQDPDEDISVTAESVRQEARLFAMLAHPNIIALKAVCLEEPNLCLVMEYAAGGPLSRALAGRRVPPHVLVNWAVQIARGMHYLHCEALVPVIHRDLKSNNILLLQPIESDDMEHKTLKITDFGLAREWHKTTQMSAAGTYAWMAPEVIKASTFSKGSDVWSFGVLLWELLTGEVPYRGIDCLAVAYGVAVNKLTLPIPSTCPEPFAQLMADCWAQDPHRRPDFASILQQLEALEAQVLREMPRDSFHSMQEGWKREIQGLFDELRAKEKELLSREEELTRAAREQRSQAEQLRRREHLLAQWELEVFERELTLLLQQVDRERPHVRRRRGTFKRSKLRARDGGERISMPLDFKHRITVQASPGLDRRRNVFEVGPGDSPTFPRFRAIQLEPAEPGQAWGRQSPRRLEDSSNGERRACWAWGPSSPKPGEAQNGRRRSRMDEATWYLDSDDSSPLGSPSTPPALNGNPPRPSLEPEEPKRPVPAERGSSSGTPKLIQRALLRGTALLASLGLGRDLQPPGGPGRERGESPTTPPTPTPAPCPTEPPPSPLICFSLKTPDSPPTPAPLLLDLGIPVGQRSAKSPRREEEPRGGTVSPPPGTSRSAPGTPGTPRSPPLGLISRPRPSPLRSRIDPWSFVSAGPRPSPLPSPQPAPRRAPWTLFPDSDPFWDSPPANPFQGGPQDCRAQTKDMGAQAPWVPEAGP
Sequence of Fibroblast growth factor receptor 4 (P22455 22-802 limits assumed): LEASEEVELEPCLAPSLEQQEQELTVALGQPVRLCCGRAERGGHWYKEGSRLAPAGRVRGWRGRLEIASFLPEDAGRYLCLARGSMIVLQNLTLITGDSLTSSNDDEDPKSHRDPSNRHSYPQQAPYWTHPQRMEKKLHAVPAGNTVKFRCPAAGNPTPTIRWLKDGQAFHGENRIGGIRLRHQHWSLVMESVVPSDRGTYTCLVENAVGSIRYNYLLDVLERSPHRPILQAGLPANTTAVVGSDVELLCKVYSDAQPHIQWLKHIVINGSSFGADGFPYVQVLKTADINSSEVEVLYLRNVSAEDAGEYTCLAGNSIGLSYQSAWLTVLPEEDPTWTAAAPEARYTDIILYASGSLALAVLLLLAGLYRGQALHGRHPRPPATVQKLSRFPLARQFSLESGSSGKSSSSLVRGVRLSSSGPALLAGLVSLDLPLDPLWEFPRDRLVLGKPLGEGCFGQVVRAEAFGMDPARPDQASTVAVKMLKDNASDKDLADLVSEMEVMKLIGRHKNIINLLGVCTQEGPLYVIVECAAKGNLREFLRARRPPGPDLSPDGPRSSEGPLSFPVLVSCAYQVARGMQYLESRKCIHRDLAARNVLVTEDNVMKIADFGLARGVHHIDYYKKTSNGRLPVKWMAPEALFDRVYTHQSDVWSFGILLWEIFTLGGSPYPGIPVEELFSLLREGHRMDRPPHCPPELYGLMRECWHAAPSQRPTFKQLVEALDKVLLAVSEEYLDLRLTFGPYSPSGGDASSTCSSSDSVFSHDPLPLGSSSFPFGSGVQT
Sequence of Citron Rho-interacting kinase (Homo sapiens) (O14578 whole entry): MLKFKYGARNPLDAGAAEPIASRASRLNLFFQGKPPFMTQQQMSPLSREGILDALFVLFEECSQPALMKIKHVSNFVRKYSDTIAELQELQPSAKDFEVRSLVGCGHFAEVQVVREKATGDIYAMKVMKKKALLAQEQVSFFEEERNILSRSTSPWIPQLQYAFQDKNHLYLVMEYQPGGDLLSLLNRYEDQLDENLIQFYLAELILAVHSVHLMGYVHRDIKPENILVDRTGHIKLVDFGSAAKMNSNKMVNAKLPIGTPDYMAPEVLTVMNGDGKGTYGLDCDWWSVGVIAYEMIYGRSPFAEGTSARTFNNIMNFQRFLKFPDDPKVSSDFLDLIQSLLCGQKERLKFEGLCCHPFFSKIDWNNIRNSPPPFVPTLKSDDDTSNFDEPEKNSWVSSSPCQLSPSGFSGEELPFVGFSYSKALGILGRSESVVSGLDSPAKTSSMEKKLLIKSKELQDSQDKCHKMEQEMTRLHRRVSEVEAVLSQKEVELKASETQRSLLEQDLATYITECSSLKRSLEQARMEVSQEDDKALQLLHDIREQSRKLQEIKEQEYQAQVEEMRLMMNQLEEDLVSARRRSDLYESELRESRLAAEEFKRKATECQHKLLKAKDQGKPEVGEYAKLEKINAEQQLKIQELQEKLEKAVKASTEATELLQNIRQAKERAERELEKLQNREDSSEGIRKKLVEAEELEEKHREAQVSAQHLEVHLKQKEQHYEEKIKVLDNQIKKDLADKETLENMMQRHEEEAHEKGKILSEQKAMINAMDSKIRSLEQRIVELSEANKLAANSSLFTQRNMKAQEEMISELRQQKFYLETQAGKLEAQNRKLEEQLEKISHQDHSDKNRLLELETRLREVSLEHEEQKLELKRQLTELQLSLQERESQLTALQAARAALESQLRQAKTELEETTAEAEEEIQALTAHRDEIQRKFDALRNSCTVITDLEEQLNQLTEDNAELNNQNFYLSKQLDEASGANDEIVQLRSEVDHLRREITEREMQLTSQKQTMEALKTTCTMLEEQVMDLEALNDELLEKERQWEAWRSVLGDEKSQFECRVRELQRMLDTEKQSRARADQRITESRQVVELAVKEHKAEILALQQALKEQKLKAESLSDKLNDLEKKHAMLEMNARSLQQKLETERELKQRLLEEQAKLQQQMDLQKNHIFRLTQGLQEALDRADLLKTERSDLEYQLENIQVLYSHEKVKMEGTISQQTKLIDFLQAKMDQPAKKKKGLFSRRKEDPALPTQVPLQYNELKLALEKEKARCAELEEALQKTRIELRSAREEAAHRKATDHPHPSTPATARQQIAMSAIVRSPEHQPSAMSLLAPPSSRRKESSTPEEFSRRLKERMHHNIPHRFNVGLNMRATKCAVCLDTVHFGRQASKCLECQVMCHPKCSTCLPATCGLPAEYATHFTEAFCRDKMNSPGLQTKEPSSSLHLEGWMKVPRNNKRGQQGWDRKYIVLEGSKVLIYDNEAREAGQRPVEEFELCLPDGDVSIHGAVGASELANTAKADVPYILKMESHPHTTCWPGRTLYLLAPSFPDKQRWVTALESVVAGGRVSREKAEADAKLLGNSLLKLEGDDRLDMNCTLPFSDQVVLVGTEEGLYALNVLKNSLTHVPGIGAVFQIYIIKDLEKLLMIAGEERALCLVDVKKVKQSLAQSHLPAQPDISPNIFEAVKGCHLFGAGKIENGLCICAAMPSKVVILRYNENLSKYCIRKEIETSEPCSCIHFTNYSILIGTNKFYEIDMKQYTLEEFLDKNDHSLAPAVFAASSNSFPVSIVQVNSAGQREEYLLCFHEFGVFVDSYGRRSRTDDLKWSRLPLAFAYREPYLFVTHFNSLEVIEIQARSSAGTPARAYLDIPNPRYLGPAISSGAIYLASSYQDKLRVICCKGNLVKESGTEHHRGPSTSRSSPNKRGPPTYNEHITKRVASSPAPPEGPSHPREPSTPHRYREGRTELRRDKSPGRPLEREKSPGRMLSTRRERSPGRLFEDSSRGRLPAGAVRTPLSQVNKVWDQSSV
Sequence of Tyrosine-protein kinase CSK (Homo sapiens) (P41240 2-450 limits assumed): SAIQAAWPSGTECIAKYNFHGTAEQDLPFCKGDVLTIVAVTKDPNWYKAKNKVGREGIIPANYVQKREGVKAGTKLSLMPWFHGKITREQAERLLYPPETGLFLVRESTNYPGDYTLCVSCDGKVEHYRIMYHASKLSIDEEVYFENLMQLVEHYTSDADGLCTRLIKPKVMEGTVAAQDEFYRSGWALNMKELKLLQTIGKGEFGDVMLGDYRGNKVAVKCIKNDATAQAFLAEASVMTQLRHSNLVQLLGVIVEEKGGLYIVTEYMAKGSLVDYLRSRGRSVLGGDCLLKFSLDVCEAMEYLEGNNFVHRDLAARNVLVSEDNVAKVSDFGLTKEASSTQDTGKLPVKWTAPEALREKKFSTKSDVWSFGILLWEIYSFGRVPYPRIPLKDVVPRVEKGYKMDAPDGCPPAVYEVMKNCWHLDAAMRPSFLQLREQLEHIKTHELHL

`CC(=O)Nc1cccc(-n2c(=O)n(C3CC3)c(=O)c3c(Nc4ccc(I)cc4F)n(C)c(=O)c(C)c32)c1` showed a % of control in [1] of 96%.

As to `COc1cc(Nc2nc(C)cc(-c3cnn4nc(OC)ccc34)n2)cc(C(F)(F)F)c1`, the % of control in [2] is 85%; in series [3] it was 100%.

In the case of `CN(C)CCOc1ccc(-c2nc(-c3ccncc3)c(-c3ccc4c(c3)CC/C4=N\O)[nH]2)cc1`, the % of control in series [4] is 82%.

`COc1cc(C(=O)N2CC[C@@H](O)[C@@H](N)C2)cc2nc(-c3cc4ccccc4n3CC3CC3)n(C)c12` had an XC50 in series [5] of 15.8 µM.

Consider `Cc1cc(F)c(C(=O)Nc2cccc(-c3nncn3C(C)C)n2)cc1-n1cnc(C2CC2)c1`, for which the % of control in series [6] was 100%.

As to `C=CC(=O)Nc1cc(-n2c(=O)ccc3cnc4ccc(-c5ccc(NS(C)(=O)=O)cc5)cc4c32)ccc1C`, the % of control in series [7] was 100%.

Compound `CNC(=O)Nc1ccc(-c2nc(N3CC4CCC(C3)O4)c3cnn(C4CCC5(CC4)OCCO5)c3n2)cc1` showed a % of control in series [8] of 100%.

As for `CC[C@@H]1[C@H](F)C(=O)N[C@@H]1COc1nccc2cc(C(N)=O)c(OC)cc12` [ZIMLOVISERTIB], the % of inhibition in series [9] was 2.3%; in [10] (at 0.01 µM), -2.3%; in [10] (at 0.04 µM), 7.1%; in [10] (at 0.2 µM), 29.8%; in series [10] (at 1 µM) it was 73.9%; in series [10] (at 5 µM) it was 86.3%.

As for `COc1cc(N(C)c2ccnc3ccc(C(F)(F)F)cc23)cc(OC)c1OC`, the % binding in series [11] came out at 88%; in [12] it was 96%.

In the case of `CCC(=O)N1CC[C@H](Nc2ncnc3c2CN(c2cnc(OC)c(C(F)(F)F)c2)CC3)C1` [LENIOLISIB], the % of inhibition in [13] amounted to 98%.

With `CN(C(=O)c1cnn2cccnc12)c1cc2c(cc1N1CCOCC1)C(=O)N(C[C@@H](F)C(C)(C)O)C2`, in series [14], the dTM was -0.3 K.

In turn, `COCC(=O)NC/C=C/c1ccc2ncnc(Nc3ccc(Oc4ccc(C)nc4)c(C)c3)c2c1` [CP-724714] came in with a % of control in series [15] of 100%.

For `N#Cc1cccc(-c2c[nH]c3ncnc(N4CCOCC4)c23)c1`, the % of control in series [16] was 100%.

For `O[C@H]1CC[C@H](Nc2ncc3nc(Nc4c(F)cc(F)cc4F)n([C@H]4CCOC4)c3n2)CC1`, the results for the % of control in series [17] and in [18] were 95% and 69%, respectively.
